The conditions of data set [1]: background art; cited from earlier work.
A short description of data set [2]: Kinetics analysis of interaction between streptavidin protein and biotin using Biacore biosensor. The data set is classed as binding. As to conditions: for Kd: Biacore 3000, obtained from kd/ka, read-out: Dissociation constant Kd. As to the method: As a ligand (a substance to be attached to a sensor chip) used for a Biacore (registered trademark) biosensor, an anti-mouse IgG antibody (manufactured by GE Healthcare Biosciences) was used. On the other hand, as analytes (substances to be supplied to the flow channel system), a biotinylated mouse antibody and various types of mutant streptavidins were prepared, and intermolecular interaction was then analyzed using Biacore (registered trademark) 3000 (a biosensor based on the principle of surface plasmon resonance; manufactured by GE Healthcare Biosciences). The anti-mouse IgG antibody was immobilized on all of the flow cells of a CM5 sensor chip according to an amine coupling method. The amount of the antibody immobilized on each flow cell was 8000 RU. Subsequently, as references, non-biotinylated mouse antibodies were captured onto Flow Cells 1 and 3, and biotinylated mouse antibodies were captured onto Flow Cells 2 and 4. Various types of streptavidins were loaded in a running buffer (HBS-EP; manufactured by GE Healthcare Biosciences) on Flow Cells 1 and 2, or 3 and 4, at a flow rate of 20 μl/min for 2 minutes. Thereafter, dissociation of each sample was monitored for 7 minutes. Thereafter, a reproduction operation was carried out using a 10 mM glycine-HCl buffer (pH 1.7) (manufactured by GE Healthcare Biosciences), and repeat measurement was then carried out. Using the analysis software BIAevaluation ver. 4.1, a reaction kinetics analysis was performed on a 1:1 binding model based on the obtained sensorgram, so as to calculate an association rate constant (ka) and a dissociation rate constant (kd). A dissociation constant (Kd) was obtained from kd/ka.
The results of the kinetics analysis of the intermolecular interaction of a recombinant streptavidin and a biotin, which was carried out using Biacore (registered trademark) 3000 (a biosensor based on the principle of surface plasmon resonance; manufactured by GE Healthcare Biosciences), are as shown in Table 2.
On the technique in general: In SPR one partner is held on a chip, and binding of the other changes the refractive index at the surface.

Setting [3] is: Biacore 3000, biotinylated mouse antibody captured, 1:1 binding model.

Turning to “Avidin: basic glycoprotein derived from albumen”, the isoelectric point entry in data set [1] is recorded as “exceeds 10”.

In the case of “cSA_WT: wild-type (native) core streptavidin, amino acid sequence SEQ ID NO: 2 [reference compound]”, in data set [1], the isoelectric point entry was “around the neutral range”. Further, in data set [2] (setting [3]), the “Association rate constant ka” value was 2.81 × 10^5 M^−1 S^−1 and the “Dissociation rate constant kd” value is on record as 6.32 × 10^−5 S^−1. In data set [2], the Kd stood at 0.225 nM.

In the case of “mcSA_W120A: streptavidin mutant named W120A in Table 2; not described further [reference compound]”, in data set [2] (setting [3]), the “Dissociation rate constant kd” value is reported as 7.49 × 10^−4 S^−1. Moreover, in data set [2], the Kd was 3.53 nM.

By Kd is commonly meant the concentration at which binding is half-saturated.
